Test results published in patent publication US20230365546A1, “5-SUBSTITUTED INDOLE 3-AMIDE DERIVATIVES, PREPARATION METHOD AND USE THEREOF” (ORIGIANT PHARMACEUTICAL CO., LTD, priority 2020, published 2023).

How the values were obtained:
[1] = target: RIPK1 (Homo sapiens (Human), UniProt Q13546); assay: In vitro kinase assay (Eurofins Kinase Profiler), IC50; type: biochemical; details: 0.001-10 μM, read-out: RIPK 1 (IC50)
[2] = tested on: HT-29 cells; assay: Protection against programmed necrosis of HT-29 cells (TNF α/Smac mimetic/Z-VAD-FMK, CCK8); type: cell-based; details: Homo sapiens, TNF α/Smac mimetic/Z-VAD-FMK induced 24 h, CCK8, read-out: HT-29 (EC50)
Method: In vitro protection against programmed necrosis of HT-29 cells was conducted by ourselves.
DMEM medium was purchased from Gibco Inc., penicillin and streptomycin were purchased from HyClone Inc., TNF α was purchased from PeproTech Inc., Smac mimetic and Z-VAD-FMK were purchased from Selleck Inc., CCK8 was purchased from Medchem Express Inc.
HT-29 cells (colon cancer cells) were cultured in DMEM+10% FBS+Penicillin/Streptomycin medium. During the experiments, HT-29 cells in logarithmic growth phase were harvested, seeded in a 96-well plate at specific numbers per well (typically 8×10^3 cells/well of adherent cells) and cultured overnight in a 37° C., 5% CO2 cell culture incubator. The next day, the compounds to be tested were diluted with culture medium to the corresponding concentrations and added into the corresponding wells of a 96-well plate, with 3 replicate wells for each sample, and a Vehicle control group and a blank Control group containing only culture medium were set at the same time. […] The absorbance was measured at 495 nm wavelength using a microplate reader, and the protection rate of the drug on the cells necrosis was calculated according to the following formula:
Protection rate of cell necrosis=[(X−C0)/(C−C0)]×100%
Wherein, C, C0, and X represent the mean absorbance values of the Vehicle control group, Blank control group and Drug treatment group, respectively.

Chain of RIPK1 (Q13546 whole entry): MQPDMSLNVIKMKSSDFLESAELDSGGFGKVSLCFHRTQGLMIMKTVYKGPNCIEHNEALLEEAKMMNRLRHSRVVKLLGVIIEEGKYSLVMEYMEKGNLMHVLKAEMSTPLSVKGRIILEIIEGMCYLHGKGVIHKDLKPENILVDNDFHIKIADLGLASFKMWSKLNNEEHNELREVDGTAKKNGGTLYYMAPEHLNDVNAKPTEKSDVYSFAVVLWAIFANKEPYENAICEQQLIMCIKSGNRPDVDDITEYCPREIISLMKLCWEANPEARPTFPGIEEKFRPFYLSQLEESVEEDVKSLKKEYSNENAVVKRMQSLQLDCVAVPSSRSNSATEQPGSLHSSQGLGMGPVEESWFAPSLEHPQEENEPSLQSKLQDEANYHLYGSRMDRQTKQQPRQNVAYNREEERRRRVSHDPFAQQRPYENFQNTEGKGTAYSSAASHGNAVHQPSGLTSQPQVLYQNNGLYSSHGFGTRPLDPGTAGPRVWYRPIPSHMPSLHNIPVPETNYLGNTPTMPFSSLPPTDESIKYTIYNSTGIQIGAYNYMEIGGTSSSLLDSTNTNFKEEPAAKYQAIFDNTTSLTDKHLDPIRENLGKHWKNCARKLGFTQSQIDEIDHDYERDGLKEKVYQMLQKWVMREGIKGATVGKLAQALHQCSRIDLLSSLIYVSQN

Structure (SMILES) | IC50 [1] | EC50 [2]
O=C(NCc1ccccc1C(F)(F)F)c1c[nH]c2ccc(-c3ccc4nc(NC(=O)C5CC5)sc4c3)cc12 [Compound 24] | 100 to 1000 nM | 10 to 100 nM
C[C@H](NC(=O)c1c[nH]c2ccc(-c3ccc4nc(NC(=O)C5CC5)sc4c3)cc12)c1ccc(F)cc1 [Compound 30] | 10 to 100 nM | < 1 nM
COc1ccc([C@@H](C)NC(=O)c2c[nH]c3ccc(-c4ccc5nc(NC(=O)C6CC6)sc5c4)cc23)cc1 [Compound 32] | 10 to 100 nM | 1 to 10 nM
COc1ccc([C@H](C)NC(=O)c2c[nH]c3ccc(-c4ccc5nc(NC(=O)C6CC6)sc5c4)cc23)cc1 [Compound 33] | 10 to 100 nM | < 1 nM
C[C@H](NC(=O)c1c[nH]c2ccc(-c3ccc4sc(NC(=O)C5CC5)nc4c3)cc12)c1cccc(F)c1 [Compound 40] | 100 to 1000 nM | 10 to 100 nM
C[C@H](NC(=O)c1c[nH]c2ccc(-c3ccc(NC(=O)C4CC4)nc3)cc12)c1cccc(F)c1 [Compound 41] | 100 to 1000 nM | 100 to 1000 nM
C[C@H](NC(=O)c1c[nH]c2ccc(-c3ccc(NC(=O)C4CC4)cc3)cc12)c1cccc(F)c1 [Compound 42] | 100 to 1000 nM | ≥ 1000 nM
C[C@H](NC(=O)c1c[nH]c2ccc(-c3cnc(NC(=O)C4CC4)nc3)cc12)c1cccc(F)c1 [Compound 43] | ≥ 1000 nM | ≥ 1000 nM
C[C@H](NC(=O)c1c[nH]c2ccc(-c3ccc4nc(NC(=O)C5CC5)ncc4c3)cc12)c1cccc(F)c1 [Compound 44] | 100 to 1000 nM | 10 to 100 nM
C[C@H](NC(=O)c1c[nH]c2ccc(-c3ccc4nc(NC(=O)C5CC5)nn4c3)cc12)c1cccc(F)c1 [Compound 45] | 10 to 100 nM | 10 to 100 nM
C[C@H](NC(=O)c1c[nH]c2ccc(-c3ccc4nc(NC(=O)C5CCCC5)sc4c3)cc12)c1cccc(F)c1 [Compound 48] | 10 to 100 nM | 1 to 10 nM
C[C@H](NC(=O)c1c[nH]c2ccc(-c3ccc4nc(NC(=O)C5CCCCC5)sc4c3)cc12)c1cccc(F)c1 [Compound 49] | 10 to 100 nM | 10 to 100 nM
C[C@H](NC(=O)c1c[nH]c2ccc(-c3ccc4nc(NC(=O)C(C)(C)C)sc4c3)cc12)c1cccc(F)c1 [Compound 50] | 10 to 100 nM | 10 to 100 nM
C[C@H](NC(=O)c1c[nH]c2ccc(-c3ccc4nc(NC(=O)C5CCOCC5)sc4c3)cc12)c1cccc(F)c1 [Compound 51] | 10 to 100 nM | 10 to 100 nM
C[C@H](NC(=O)c1c[nH]c2ccc(-c3ccc4nc(NC(=O)C(F)(F)F)sc4c3)cc12)c1cccc(F)c1 [Compound 52] | 100 to 1000 nM | 10 to 100 nM
CC(C)C(=O)Nc1nc2ccc(-c3ccc4[nH]cc(C(=O)N[C@@H](C)c5cccc(F)c5)c4c3)cc2s1 [Compound 55] | 10 to 100 nM | 1 to 10 nM
CC(C)n1cc(C(=O)NCc2cc(F)ccc2F)c2cc(-c3ccc4nc(NC(=O)C5CC5)sc4c3)ccc21 [Compound 56] | 10 to 100 nM | 1 to 10 nM

Structure (SMILES) | IC50 [1] | EC50 [2]
CCCn1cc(C(=O)NCc2cc(F)ccc2F)c2cc(-c3ccc4nc(NC(=O)C5CC5)sc4c3)ccc21 [Compound 57] | 100 to 1000 nM | 10 to 100 nM
CCCCn1cc(C(=O)NCc2cc(F)ccc2F)c2cc(-c3ccc4nc(NC(=O)C5CC5)sc4c3)ccc21 [Compound 58] | 100 to 1000 nM | 100 to 1000 nM
COc1cc(F)ccc1NC(=O)c1c[nH]c2ncc(-c3ccc4nc(NC(=O)C5CC5)sc4c3)cc12 [Compound 60] | ≥ 1000 nM | ≥ 1000 nM
C[C@H](NC(=O)c1c[nH]c2ncc(-c3ccc4nc(NC(=O)C5CC5)sc4c3)cc12)c1cccc(F)c1 [Compound 62] | 100 to 1000 nM | 1 to 10 nM
COc1ccc(NC(=O)c2c[nH]c3ncc(-c4ccc5nc(NC(=O)C6CC6)sc5c4)cc23)cc1OC [Compound 63] | 10 to 100 nM | 10 to 100 nM
COc1ccc(CNC(=O)c2c[nH]c3ncc(-c4ccc5nc(NC(=O)C6CC6)sc5c4)cc23)cc1OC [Compound 64] | 100 to 1000 nM | 10 to 100 nM
C[C@H](NC(=O)c1cn(C)c2ccc(-c3ccc(CN4CCN(C)CC4)cc3)cc12)c1cccc(F)c1 [Compound 68] | ≥ 1000 nM | ≥ 1000 nM
Cc1noc(C)c1-c1cnc2[nH]cc(C(=O)N[C@@H](C)c3cccc(F)c3)c2c1 [Compound 69] | ≥ 1000 nM | ≥ 1000 nM
C[C@H](NC(=O)c1cn(C)c2ccc(-c3ccc(C(=O)N4CCOCC4)cc3)cc12)c1cccc(F)c1 [Compound 70] | ≥ 1000 nM | 100 to 1000 nM
C[C@H](NC(=O)c1cn(C)c2ccc(-c3ccnn3C3CCCCO3)cc12)c1cccc(F)c1 (stereo partly shown) [Compound 71] | ≥ 1000 nM | ≥ 1000 nM
C[C@H](NC(=O)c1cn(C)c2ccc(-c3ccc(N4CCOCC4)cc3)cc12)c1cccc(F)c1 [Compound 72] | ≥ 1000 nM | ≥ 1000 nM
C[C@H](NC(=O)c1cn(C)c2ccc(-c3ccc(N4CCOCC4)nc3)cc12)c1cccc(F)c1 [Compound 73] | ≥ 1000 nM | ≥ 1000 nM
C[C@H](NC(=O)c1c[nH]c2ncc(-c3ccc(C(=O)N4CCOCC4)cc3)cc12)c1cccc(F)c1 [Compound 74] | 100 to 1000 nM | 100 to 1000 nM
C[C@H](NC(=O)c1c[nH]c2ncc(-c3ccnn3C3CCCCO3)cc12)c1cccc(F)c1 (stereo partly shown) [Compound 75] | ≥ 1000 nM | 100 to 1000 nM
C[C@H](NC(=O)c1c[nH]c2ncc(-c3ccc(N4CCOCC4)cc3)cc12)c1cccc(F)c1 [Compound 76] | 100 to 1000 nM | 100 to 1000 nM
C[C@H](NC(=O)c1c[nH]c2ncc(-c3ccc(N4CCOCC4)nc3)cc12)c1cccc(F)c1 [Compound 77] | 100 to 1000 nM | 100 to 1000 nM

The next lines start with results.

IC50 [1] | Structure (SMILES) | EC50 [2]
10 to 100 nM | O=C(NCc1cccc(Cl)c1)c1c[nH]c2ccc(-c3ccc4nc(NC(=O)C5CC5)sc4c3)cc12 [Compound 22] | 1 to 10 nM
100 to 1000 nM | O=C(NCc1cccc(Br)c1)c1c[nH]c2ccc(-c3ccc4nc(NC(=O)C5CC5)sc4c3)cc12 [Compound 23] | 1 to 10 nM
10 to 100 nM | O=C(NCc1cc(F)ccc1F)c1c[nH]c2ccc(-c3ccc4nc(NC(=O)C5CC5)sc4c3)cc12 [Compound 25] | < 1 nM
100 to 1000 nM | COc1ccc(CNC(=O)c2c[nH]c3ccc(-c4ccc5nc(NC(=O)C6CC6)sc5c4)cc23)cc1OC [Compound 26] | ≥ 1000 nM
100 to 1000 nM | CC(C)c1ccc(CNC(=O)c2c[nH]c3ccc(-c4ccc5nc(NC(=O)C6CC6)sc5c4)cc23)cc1 [Compound 28] | ≥ 1000 nM
100 to 1000 nM | CC(C)(C)c1ccc(CNC(=O)c2c[nH]c3ccc(-c4ccc5nc(NC(=O)C6CC6)sc5c4)cc23)cc1 [Compound 29] | 100 to 1000 nM
100 to 1000 nM | C[C@@H](NC(=O)c1c[nH]c2ccc(-c3ccc4nc(NC(=O)C5CC5)sc4c3)cc12)c1ccc(F)cc1 [Compound 31] | 100 to 1000 nM
100 to 1000 nM | C[C@@H](NC(=O)c1c[nH]c2ccc(-c3ccc4nc(NC(=O)C5CC5)sc4c3)cc12)c1cccc(F)c1 [Compound 35] | 10 to 100 nM
100 to 1000 nM | C[C@@H](NC(=O)c1c[nH]c2ccc(-c3ccc4nc(NC(=O)C5CC5)sc4c3)cc12)c1cccc(Cl)c1 [Compound 36] | 100 to 1000 nM
10 to 100 nM | C[C@H](NC(=O)c1c[nH]c2ccc(-c3ccc4nc(NC(=O)C5CC5)sc4c3)cc12)c1cccc(Cl)c1 [Compound 37] | 1 to 10 nM
10 to 100 nM | COc1cccc([C@H](C)NC(=O)c2c[nH]c3ccc(-c4ccc5nc(NC(=O)C6CC6)sc5c4)cc23)c1 [Compound 38] | 1 to 10 nM
100 to 1000 nM | COc1cccc([C@@H](C)NC(=O)c2c[nH]c3ccc(-c4ccc5nc(NC(=O)C6CC6)sc5c4)cc23)c1 [Compound 39] | 10 to 100 nM
10 to 100 nM | C[C@H](NC(=O)c1c[nH]c2ccc(-c3ccc4nc(NC(=O)C5CCC5)sc4c3)cc12)c1cccc(F)c1 [Compound 47] | 1 to 10 nM
100 to 1000 nM | C[C@H](NC(=O)c1c[nH]c2ccc(-c3ccc4nc(NC(=O)C5CCN(C)CC5)sc4c3)cc12)c1cccc(F)c1 [Compound 53] | 100 to 1000 nM
10 to 100 nM | Cn1cc(C(=O)NCc2cc(F)ccc2F)c2cc(-c3ccc4nc(NC(=O)C5CC5)sc4c3)ccc21 [Compound 54] | < 1 nM
10 to 100 nM | C[C@H](NC(=O)c1n[nH]c2ccc(-c3ccc4nc(NC(=O)C5CC5)sc4c3)cc12)c1cccc(F)c1 [Compound 59] | 1 to 10 nM
≥ 1000 nM | COc1cc(F)ccc1NC(=O)c1n[nH]c2ccc(-c3ccc4nc(NC(=O)C5CC5)sc4c3)cc12 [Compound 61] | ≥ 1000 nM
100 to 1000 nM | COc1ccc(CNC(=O)c2cn(C)c3ccc(-c4ccc5nc(NC(=O)C6CC6)sc5c4)cc23)cc1OC [Compound 65] | 10 to 100 nM
≥ 1000 nM | Cn1cc(C(=O)N2CCN(Cc3ccc4c(c3)OCO4)CC2)c2cc(-c3ccc4nc(NC(=O)C5CC5)sc4c3)ccc21 [Compound 66] | ≥ 1000 nM
≥ 1000 nM | COc1cc(CN2CCN(C(=O)c3cn(C)c4ccc(-c5ccc6nc(NC(=O)C7CC7)sc6c5)cc34)CC2)cc(OC)c1OC [Compound 67] | ≥ 1000 nM
